# Results published in patent US9340590B2 (priority 2011, dated 2016).
# Where two headings read alike, the source gives them in different places. Positions of bridges follow the written chain, without caps; N, C: chain ends. Non-standard residues stand in square brackets, D forms with d. Residues, ends and D or L forms follow the SMILES beside them. 2Nal = N[C@@H](Cc1ccc2ccccc2c1)C(=O)O; pGlu = O=C1CC[C@@H](C(=O)O)N1; Abu = CC[C@H](N)C(=O)O
# How the values were obtained:
# Assay in all cases: cell-based
# hNav1.7 = hNav1.7 (Homo sapiens, UniProt Q15858); type: cell-based; settings: IonWorks Quattro, read-out: IWQ Use Nav1.7
# Sequence of hNav1.7 (Q15858 whole entry, looked up): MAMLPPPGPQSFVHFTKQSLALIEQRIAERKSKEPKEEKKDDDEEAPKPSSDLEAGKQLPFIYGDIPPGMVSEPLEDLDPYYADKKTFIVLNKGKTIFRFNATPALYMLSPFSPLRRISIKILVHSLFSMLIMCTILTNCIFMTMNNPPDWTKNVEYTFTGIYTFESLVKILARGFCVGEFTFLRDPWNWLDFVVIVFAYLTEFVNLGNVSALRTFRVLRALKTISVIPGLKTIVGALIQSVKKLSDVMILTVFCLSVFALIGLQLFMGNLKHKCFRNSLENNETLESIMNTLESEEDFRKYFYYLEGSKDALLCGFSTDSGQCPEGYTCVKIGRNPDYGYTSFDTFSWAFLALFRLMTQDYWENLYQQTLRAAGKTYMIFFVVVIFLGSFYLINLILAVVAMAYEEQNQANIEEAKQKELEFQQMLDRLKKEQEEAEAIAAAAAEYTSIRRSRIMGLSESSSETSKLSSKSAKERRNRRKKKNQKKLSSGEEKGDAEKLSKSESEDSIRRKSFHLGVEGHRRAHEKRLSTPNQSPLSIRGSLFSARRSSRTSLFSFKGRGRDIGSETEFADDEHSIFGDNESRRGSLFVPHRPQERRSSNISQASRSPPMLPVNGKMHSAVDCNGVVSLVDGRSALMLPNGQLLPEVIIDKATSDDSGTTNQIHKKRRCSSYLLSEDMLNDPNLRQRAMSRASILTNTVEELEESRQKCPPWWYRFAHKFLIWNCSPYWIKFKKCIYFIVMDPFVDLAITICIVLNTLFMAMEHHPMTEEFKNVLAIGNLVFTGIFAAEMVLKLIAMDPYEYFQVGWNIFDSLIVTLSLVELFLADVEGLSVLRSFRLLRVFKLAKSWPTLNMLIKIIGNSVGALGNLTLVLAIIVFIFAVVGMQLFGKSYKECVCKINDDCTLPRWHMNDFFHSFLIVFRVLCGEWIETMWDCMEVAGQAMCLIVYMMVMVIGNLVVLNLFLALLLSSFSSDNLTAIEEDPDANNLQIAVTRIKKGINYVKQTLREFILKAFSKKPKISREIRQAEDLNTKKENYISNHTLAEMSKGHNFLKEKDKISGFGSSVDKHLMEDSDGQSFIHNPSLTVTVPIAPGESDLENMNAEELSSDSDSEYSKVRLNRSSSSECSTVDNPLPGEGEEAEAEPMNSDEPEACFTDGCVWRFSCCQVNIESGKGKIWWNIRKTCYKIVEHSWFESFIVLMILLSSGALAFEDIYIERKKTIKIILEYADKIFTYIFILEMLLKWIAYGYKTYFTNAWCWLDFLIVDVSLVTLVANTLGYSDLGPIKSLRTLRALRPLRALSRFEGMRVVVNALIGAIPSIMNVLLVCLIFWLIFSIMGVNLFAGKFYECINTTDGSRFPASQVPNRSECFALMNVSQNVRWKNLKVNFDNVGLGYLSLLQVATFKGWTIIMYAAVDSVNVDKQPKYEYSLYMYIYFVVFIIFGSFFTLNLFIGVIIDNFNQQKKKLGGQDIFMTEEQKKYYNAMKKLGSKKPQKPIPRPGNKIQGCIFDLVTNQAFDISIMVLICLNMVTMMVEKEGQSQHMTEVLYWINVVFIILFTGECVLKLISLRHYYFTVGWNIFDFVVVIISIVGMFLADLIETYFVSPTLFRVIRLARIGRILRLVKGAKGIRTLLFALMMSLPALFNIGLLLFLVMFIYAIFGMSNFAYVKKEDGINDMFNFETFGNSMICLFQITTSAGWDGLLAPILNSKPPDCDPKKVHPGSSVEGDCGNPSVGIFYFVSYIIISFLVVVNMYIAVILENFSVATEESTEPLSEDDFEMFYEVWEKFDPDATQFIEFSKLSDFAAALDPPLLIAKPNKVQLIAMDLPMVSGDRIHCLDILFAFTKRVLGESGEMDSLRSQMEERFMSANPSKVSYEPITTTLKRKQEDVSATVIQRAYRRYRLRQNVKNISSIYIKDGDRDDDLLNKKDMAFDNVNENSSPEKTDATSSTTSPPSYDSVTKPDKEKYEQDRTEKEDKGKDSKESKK
# hNav1.5 = hNav1.5 (Homo sapiens, UniProt Q14524)
# Sequence of hNav1.5 (Q14524 whole entry, looked up): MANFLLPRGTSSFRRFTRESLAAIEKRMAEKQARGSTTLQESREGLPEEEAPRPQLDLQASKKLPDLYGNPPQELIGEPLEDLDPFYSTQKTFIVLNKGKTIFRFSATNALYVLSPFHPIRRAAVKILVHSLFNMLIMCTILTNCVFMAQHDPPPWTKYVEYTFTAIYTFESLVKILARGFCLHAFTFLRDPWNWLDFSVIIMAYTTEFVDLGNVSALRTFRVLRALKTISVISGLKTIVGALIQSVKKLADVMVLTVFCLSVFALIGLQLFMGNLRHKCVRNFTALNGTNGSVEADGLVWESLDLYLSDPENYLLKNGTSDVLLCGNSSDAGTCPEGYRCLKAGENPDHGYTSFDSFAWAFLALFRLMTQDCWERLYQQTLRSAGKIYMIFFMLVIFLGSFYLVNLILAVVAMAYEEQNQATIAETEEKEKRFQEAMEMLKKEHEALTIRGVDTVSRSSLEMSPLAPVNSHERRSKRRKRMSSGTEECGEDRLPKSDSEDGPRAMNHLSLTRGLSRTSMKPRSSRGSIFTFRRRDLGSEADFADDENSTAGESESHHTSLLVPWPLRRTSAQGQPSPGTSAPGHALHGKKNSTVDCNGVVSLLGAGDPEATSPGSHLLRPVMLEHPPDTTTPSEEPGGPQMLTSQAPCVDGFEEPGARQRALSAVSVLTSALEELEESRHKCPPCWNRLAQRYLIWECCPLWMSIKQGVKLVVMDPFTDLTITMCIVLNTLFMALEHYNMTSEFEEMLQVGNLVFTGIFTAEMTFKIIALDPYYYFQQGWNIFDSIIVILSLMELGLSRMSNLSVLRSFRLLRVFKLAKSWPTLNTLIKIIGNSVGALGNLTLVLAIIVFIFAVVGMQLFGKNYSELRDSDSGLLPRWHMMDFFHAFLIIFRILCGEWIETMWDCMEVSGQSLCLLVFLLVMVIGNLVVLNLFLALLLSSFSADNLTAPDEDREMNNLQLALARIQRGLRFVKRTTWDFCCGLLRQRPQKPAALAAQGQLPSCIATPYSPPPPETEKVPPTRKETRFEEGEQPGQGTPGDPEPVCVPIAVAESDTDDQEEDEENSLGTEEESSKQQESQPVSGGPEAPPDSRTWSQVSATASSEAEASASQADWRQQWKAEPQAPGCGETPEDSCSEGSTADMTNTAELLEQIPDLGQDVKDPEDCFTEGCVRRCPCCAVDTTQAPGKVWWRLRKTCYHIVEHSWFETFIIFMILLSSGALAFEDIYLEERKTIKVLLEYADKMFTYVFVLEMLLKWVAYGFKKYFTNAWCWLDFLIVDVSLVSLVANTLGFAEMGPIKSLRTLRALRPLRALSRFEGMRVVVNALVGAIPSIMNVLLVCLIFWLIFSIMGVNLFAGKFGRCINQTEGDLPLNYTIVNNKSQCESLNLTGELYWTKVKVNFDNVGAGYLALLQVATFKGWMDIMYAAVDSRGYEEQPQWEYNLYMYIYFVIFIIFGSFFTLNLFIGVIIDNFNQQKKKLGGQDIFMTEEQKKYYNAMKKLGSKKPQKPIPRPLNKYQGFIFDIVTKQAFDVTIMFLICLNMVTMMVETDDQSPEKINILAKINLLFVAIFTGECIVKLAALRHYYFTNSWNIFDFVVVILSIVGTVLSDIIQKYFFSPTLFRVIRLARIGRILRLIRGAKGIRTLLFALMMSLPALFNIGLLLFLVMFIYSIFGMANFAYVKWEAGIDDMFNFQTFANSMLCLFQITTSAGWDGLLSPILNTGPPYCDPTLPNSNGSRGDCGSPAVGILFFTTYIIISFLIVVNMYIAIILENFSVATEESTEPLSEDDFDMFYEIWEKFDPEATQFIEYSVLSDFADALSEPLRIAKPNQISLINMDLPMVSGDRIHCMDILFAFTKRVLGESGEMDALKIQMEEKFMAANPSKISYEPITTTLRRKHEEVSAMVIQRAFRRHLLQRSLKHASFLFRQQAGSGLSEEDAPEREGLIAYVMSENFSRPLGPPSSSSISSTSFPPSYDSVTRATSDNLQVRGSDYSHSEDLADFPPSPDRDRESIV
# hNav1.3 = hNav1.3 (Homo sapiens, UniProt Q9NY46); settings: IonWorks Quattro, read-out: IWQ Use Nav1.3
# [1] = clamped to −110 mV, depolarized to −10 mV, 5 min after compound, n=2
# [2] = IonWorks Quattro, clamped to −110 mV, depolarized to −10 mV, 5 min after compound, n=2, read-out: IWQ Use Nav1.5
smiles,measurement,setting,value
"CC[C@@H]1NC(=O)[C@@H]2CSSC[C@@H](C(=O)N[C@@H](CCCCN)C(=O)N[C@@H](Cc3ccc(O)cc3)C(=O)N[C@H](C(=O)N[C@@H](Cc3ccccc3)C(N)=O)C(C)C)NC(=O)[C@H](Cc3c[nH]c4ccccc34)NC(=O)[C@H](CCCCN)NC(=O)[C@H](Cc3c[nH]cn3)NC(=O)[C@H]([C@@H](C)O)NC(=O)[C@H](CCCNC(=N)N)NC(=O)[C@H](CO)NC(=O)[C@H](CSSC[C@H](NC(=O)[C@H](CCCCN)NC(=O)[C@H](CCCNC(=N)N)NC(=O)[C@H](CCSC)NC(=O)[C@H](Cc3ccccc3)NC(=O)CNC(=O)[C@H](CC(C)C)NC(=O)[C@H](CC)NC(=O)[C@@H](N)CC(=O)O)C(=O)N[C@@H]([C@@H](C)CC)C(=O)N3CCC[C@H]3C(=O)N[C@@H](CC(=O)O)C(=O)N[C@@H](CC(N)=O)C(=O)N[C@@H](CC(=O)O)C(=O)N[C@@H](CCCCN)C(=O)N2)NC(=O)[C@H](C(C)C)NC(=O)[C@H](CC(C)C)NC(=O)[C@H](CC(N)=O)NC(=O)[C@@H]2CCCN2C(=O)[C@H](CCCNC(=N)N)NC1=O [SEQ ID NO: 125, [2-Abu-2,17]GpTx-1] (H-D[Abu]LGFMRKCIPDNDKC[Abu]RPNLVCSRTHKWCKYVF-NH2; disulfide 9-23, 16-30)",IC50,"hNav1.7; use-dependent block, hNav1.7",0.3 µM
same,IC50,"hNav1.5; IonWorks Quattro, use-dependent block, hNav1.5, read-out: IWQ Use Nav1.5",9.51 µM
same,IC50,"hNav1.3; use-dependent block, hNav1.3",0.24 µM
CC[C@H](C)[C@@H]1NC(=O)[C@@H]2CSSC[C@@H]3NC(=O)[C@H](C(C)C)NC(=O)[C@H](CC(C)C)NC(=O)[C@H](CC(N)=O)NC(=O)[C@@H]4CCCN4C(=O)[C@H](CCCNC(=N)N)NC(=O)[C@H](CSSC[C@H](NC(=O)[C@@H](N)CC(=O)O)C(=O)N[C@@H](CC(C)C)C(=O)NCC(=O)N[C@@H](Cc4ccc5ccccc5c4)C(=O)N[C@@H](CCSC)C(=O)N[C@@H](CCCNC(=N)N)C(=O)N[C@@H](CCCCN)C(=O)N2)NC(=O)[C@H](CSSC[C@@H](C(=O)N[C@@H](CCCCN)C(=O)N[C@@H](Cc2ccc(O)cc2)C(=O)N[C@H](C(=O)N[C@@H](Cc2ccccc2)C(N)=O)C(C)C)NC(=O)[C@H](Cc2c[nH]c4ccccc24)NC(=O)[C@H](CCCCN)NC(=O)[C@H](Cc2c[nH]cn2)NC(=O)[C@H]([C@@H](C)O)NC(=O)[C@H](CCCNC(=N)N)NC(=O)[C@H](CO)NC3=O)NC(=O)[C@H](CCCCN)NC(=O)[C@H](CC(=O)O)NC(=O)[C@H](CC(N)=O)NC(=O)[C@H](CC(=O)O)NC(=O)[C@@H]2CCCN2C1=O [SEQ ID NO: 128],IC50,hNav1.7; [1],0.11 µM
same,IC50,hNav1.5; [2],6.11 µM
same,IC50,hNav1.3; [1],0.05 µM
"CC[C@H](C)[C@@H]1NC(=O)[C@@H]2CSSC[C@@H]3NC(=O)[C@H](C(C)C)NC(=O)[C@H](CC(C)C)NC(=O)[C@H](CC(N)=O)NC(=O)[C@@H]4CCCN4C(=O)[C@H](CCCNC(=N)N)NC(=O)[C@H](CSSC[C@H](NC(=O)[C@@H](N)CC(=O)O)C(=O)N[C@@H](CC(C)C)C(=O)NCC(=O)N[C@@H](Cc4ccccc4)C(=O)N[C@@H](CCSC)C(=O)N[C@@H](CCCNC(=N)N)C(=O)N[C@@H](CCCCN)C(=O)N2)NC(=O)[C@H](CSSC[C@@H](C(=O)N[C@@H](CCCCN)C(=O)N[C@@H](Cc2ccc(O)cc2)C(=O)N[C@H](C(=O)N[C@@H](Cc2ccccc2)C(N)=O)C(C)C)NC(=O)[C@H](Cc2ccc4ccccc4c2)NC(=O)[C@H](CCCCN)NC(=O)[C@H](Cc2c[nH]cn2)NC(=O)[C@H]([C@@H](C)O)NC(=O)[C@H](CCCNC(=N)N)NC(=O)[C@H](CO)NC3=O)NC(=O)[C@H](CCCCN)NC(=O)[C@H](CC(=O)O)NC(=O)[C@H](CC(N)=O)NC(=O)[C@H](CC(=O)O)NC(=O)[C@@H]2CCCN2C1=O [SEQ ID NO: 129, [2-Nal29]GpTx-1] (H-DCLGFMRKCIPDNDKCCRPNLVCSRTHK[2Nal]CKYVF-NH2; disulfide 2-17, 9-23, 16-30)",IC50,"hNav1.7; Table 24, use, […]",0.58 µM
same,IC50,"hNav1.5; Table 24, IonWorks Quattro, use, […], read-out: IWQ Use Nav1.5",11.7 µM
same,IC50,"hNav1.3; Table 24, use, […]",0.73 µM
"CC[C@H](C)[C@@H]1NC(=O)[C@@H]2CSSC[C@@H]3NC(=O)[C@H](C(C)C)NC(=O)[C@H](CC(C)C)NC(=O)[C@H](CC(N)=O)NC(=O)[C@@H]4CCCN4C(=O)[C@H](CCCNC(=N)N)NC(=O)[C@H](CSSC[C@H](NC(=O)[C@@H](N)CC(=O)O)C(=O)N[C@@H](CC(C)C)C(=O)NCC(=O)N[C@@H](Cc4ccccc4)C(=O)N[C@@H](CCSC)C(=O)N[C@@H](CCCNC(=N)N)C(=O)N[C@@H](CCCCN)C(=O)N2)NC(=O)[C@H](CSSC[C@@H](C(=O)N[C@@H](CCCCN)C(=O)N[C@@H](Cc2ccc(O)cc2)C(=O)N[C@H](C(=O)N[C@@H](Cc2ccccc2)C(N)=O)C(C)C)NC(=O)[C@H](Cc2c[nH]c4ccccc24)NC(=O)[C@H](CCCCN)NC(=O)[C@H](Cc2cnc[nH]2)NC(=O)[C@H](CCC(=O)O)NC(=O)[C@H](CCCNC(=N)N)NC(=O)[C@H](CO)NC3=O)NC(=O)[C@H](CCCCN)NC(=O)[C@H](CC(=O)O)NC(=O)[C@H](CC(N)=O)NC(=O)[C@H](CC(=O)O)NC(=O)[C@@H]2CCCN2C1=O [SEQ ID NO: 152, [Glu26]GpTx-1] (H-DCLGFMRKCIPDNDKCCRPNLVCSREHKWCKYVF-NH2; disulfide 2-17, 9-23, 16-30)",IC50,"hNav1.7; Table 22, use, […]",0.68 µM
same,IC50,hNav1.5; IWQ Use Nav1.5 (μM),17.2 µM
same,IC50,"hNav1.3; Table 22, use, […]",0.71 µM
"CC[C@H](C)[C@@H]1NC(=O)[C@@H]2CSSC[C@@H]3NC(=O)[C@H](C(C)C)NC(=O)[C@H](CC(C)C)NC(=O)[C@H](CC(N)=O)NC(=O)[C@@H]4CCCN4C(=O)[C@H](CCCNC(=N)N)NC(=O)[C@H](CSSC[C@H](NC(=O)[C@@H](N)CC(=O)O)C(=O)N[C@@H](CC(C)C)C(=O)NCC(=O)N[C@@H](Cc4ccccc4)C(=O)N[C@@H](CCCCN)C(=O)N[C@@H](CCCNC(=N)N)C(=O)N[C@@H](CCCCN)C(=O)N2)NC(=O)[C@H](CSSC[C@@H](C(=O)N[C@@H](CCCCN)C(=O)N[C@@H](Cc2ccc(O)cc2)C(=O)N[C@H](C(=O)N[C@@H](Cc2ccccc2)C(N)=O)C(C)C)NC(=O)[C@H](Cc2c[nH]c4ccccc24)NC(=O)[C@H](CCCCN)NC(=O)[C@H](Cc2cnc[nH]2)NC(=O)[C@H]([C@@H](C)O)NC(=O)[C@H](CCCNC(=N)N)NC(=O)[C@H](CO)NC3=O)NC(=O)[C@H](CCCCN)NC(=O)[C@H](CC(=O)O)NC(=O)[C@H](CC(N)=O)NC(=O)[C@H](CC(=O)O)NC(=O)[C@@H]2CCCN2C1=O [SEQ ID NO: 154] (H-DCLGFKRKCIPDNDKCCRPNLVCSRTHKWCKYVF-NH2; disulfide 2-17, 9-23, 16-30)",IC50,hNav1.7; [1],14.5 µM
same,IC50,hNav1.5; [2],13.9 µM
same,IC50,hNav1.3; [1],8.49 µM
"CC[C@H](C)[C@@H]1NC(=O)[C@@H]2CSSC[C@@H]3NC(=O)[C@H](C(C)C)NC(=O)[C@H](CC(C)C)NC(=O)[C@H](CC(N)=O)NC(=O)[C@@H]4CCCN4C(=O)[C@H](CCCNC(=N)N)NC(=O)[C@H](CSSC[C@H](NC(=O)[C@@H](N)CC(=O)O)C(=O)N[C@@H](CC(C)C)C(=O)NCC(=O)N[C@@H](Cc4ccccc4)C(=O)N[C@@H](CCSC)C(=O)N[C@@H](CCCNC(=N)N)C(=O)N[C@@H](CCCCN)C(=O)N2)NC(=O)[C@H](CSSC[C@@H](C(=O)N[C@@H](CCCCN)C(=O)N[C@@H](Cc2ccc(O)cc2)C(=O)N[C@H](C(=O)N[C@@H](Cc2ccccc2)C(N)=O)C(C)C)NC(=O)[C@H](Cc2c[nH]c4ccccc24)NC(=O)[C@H](CCCCN)NC(=O)[C@H](Cc2cnc[nH]2)NC(=O)[C@H]([C@@H](C)O)NC(=O)[C@H](CCCNC(=N)N)NC(=O)[C@H](CO)NC3=O)NC(=O)[C@H](CCCCN)NC(=O)[C@H](CC(=O)O)NC(=O)[C@H](CC(N)=O)NC(=O)[C@H](CC(=O)O)NC(=O)[C@H](Cc2c[nH]c3ccccc23)NC1=O [SEQ ID NO: 171, [Trp11]GpTx-1] (H-DCLGFMRKCIWDNDKCCRPNLVCSRTHKWCKYVF-NH2; disulfide 2-17, 9-23, 16-30)",IC50,hNav1.7; Use,0.07 µM
same,IC50,"hNav1.5; IonWorks Quattro, Use, read-out: IWQ Use Nav1.5",9.5 µM
same,IC50,hNav1.3; Use,0.04 µM
"CC[C@H](C)[C@@H]1NC(=O)[C@@H]2CSSC[C@@H]3NC(=O)[C@H](C(C)C)NC(=O)[C@H](CC(C)C)NC(=O)[C@H](CC(N)=O)NC(=O)[C@@H]4CCCN4C(=O)[C@H](CCCNC(=N)N)NC(=O)[C@H](CSSC[C@H](NC(=O)[C@@H]4CCC(=O)N4)C(=O)N[C@@H](CC(C)C)C(=O)NCC(=O)N[C@@H](Cc4ccccc4)C(=O)N[C@@H](CCSC)C(=O)N[C@@H](CCCNC(=N)N)C(=O)N[C@@H](CCCCN)C(=O)N2)NC(=O)[C@H](CSSC[C@@H](C(=O)N[C@@H](CCCCN)C(=O)N[C@@H](Cc2ccc(O)cc2)C(=O)N[C@H](C(=O)N[C@@H](Cc2ccccc2)C(N)=O)C(C)C)NC(=O)[C@H](Cc2c[nH]c4ccccc24)NC(=O)[C@H](CCCCN)NC(=O)[C@H](Cc2c[nH]cn2)NC(=O)[C@H]([C@@H](C)O)NC(=O)[C@H](CCCNC(=N)N)NC(=O)[C@H](CO)NC3=O)NC(=O)[C@H](CCCCN)NC(=O)[C@H](CC(=O)O)NC(=O)[C@H](CC(N)=O)NC(=O)[C@H](CC(=O)O)NC(=O)[C@@H]2CCCN2C1=O [SEQ ID NO: 188] ([pGlu]CLGFMRKCIPDNDKCCRPNLVCSRTHKWCKYVF-NH2; disulfide 2-17, 9-23, 16-30)",IC50,hNav1.7; [1],0.17 µM
same,IC50,hNav1.5; [2],10.7 µM
same,IC50,hNav1.3; [1],0.11 µM
